# Structures can show the parent of a compound that is named as a salt.
# Assays:
# [1] = Solubility of meclizine hydrochloride in Solutol HS15 and HP-β-CD solutions; assay type: physicochemical; conditions: aqueous with cosolvent or surfactant or cyclodextrin, thermodynamic from solid, room temperature (22° C.)
# Experimental: The ability of Solutol® HS15 and HP-β-CD to enhance the aqueous solubility of meclizine hydrochloride is determined in this example.
# Aqueous solutions containing 0.1, 0.5, 1, 2.5, 5, 10, 15, 20, and 25% (w/v) (w/v) of Solutol® HS15 or HP-β-CD solubilizers were prepared. 10 mg samples of meclizine hydrochloride were added to a 4 ml portion of each of the above solutions. The samples were left to be stirred overnight at room temperature (22° C.). If during this time all drug dissolved, additional meclizine was added until a suspension was formed (i.e. saturated drug solution formed). After further stirring for up to 24 hours, suspensions were centrifuged at 14000 rpm for 10 minutes, and then the supernatants were filtered (0.45 μm filter, Sartorius, Germany) to obtain saturated meclizine hydrochloride solutions. The filtrate samples were diluted and detected by HPLC and the concentration of meclizine hydrochloride in the samples was calculated with the calibration curve made from standard solutions of meclizine hydrochloride.
# [2] = cited from earlier work
# histamine [3] = conditions: guinea pigs; cited from earlier work
# acetylcholine = conditions: in vivo; cited from earlier work
# [4] = system: isolated guinea pig ileum; conditions: cited from earlier work
# histamine [5] = conditions: in vivo; cited from earlier work
# [6] = up to 225 mg/day for 9.5 years; cited from earlier work
smiles,measurement,setting,value
Cc1cccc(CN2CCN(C(c3ccccc3)c3ccc(Cl)cc3)CC2)c1 (stereo not shown) [meclizine hydrochloride],solubility,[1]; 0.1% (w/v) HP-β-CD aqueous solution,3.4 mg/mL
same,solubility,[1]; 0.1% (w/v) Solutol HS15 aqueous solution,2.6 mg/mL
same,solubility,[1]; 0.5% (w/v) HP-β-CD aqueous solution,6.1 mg/mL
same,solubility,[1]; 0.5% (w/v) Solutol HS15 aqueous solution,3.2 mg/mL
same,solubility,[1]; 1% (w/v) HP-β-CD aqueous solution,7.1 mg/mL
same,solubility,[1]; 1% (w/v) Solutol HS15 aqueous solution,4.3 mg/mL
same,solubility,[1]; 2.5% (w/v) HP-β-CD aqueous solution,9.9 mg/mL
same,solubility,[1]; 2.5% (w/v) Solutol HS15 aqueous solution,5.2 mg/mL
same,solubility,[1]; 5% (w/v) HP-β-CD aqueous solution,14.3 mg/mL
same,solubility,[1]; 5% (w/v) Solutol HS15 aqueous solution,9.2 mg/mL
same,solubility,[1]; 10% (w/v) HP-β-CD aqueous solution,24.6 mg/mL
same,solubility,[1]; 10% (w/v) Solutol HS15 aqueous solution,15.4 mg/mL
same,solubility,[1]; 15% (w/v) HP-β-CD aqueous solution,30.5 mg/mL
same,solubility,[1]; 15% (w/v) Solutol HS15 aqueous solution,22.8 mg/mL
same,solubility,[1]; 20% (w/v) HP-β-CD aqueous solution,34.3 mg/mL
same,solubility,[1]; 20% (w/v) Solutol HS15 aqueous solution,36.8 mg/mL
same,solubility,[1]; 25% (w/v) HP-β-CD aqueous solution,37.9 mg/mL
same,solubility,[1]; 25% (w/v) Solutol HS15 aqueous solution,40.1 mg/mL
same,solubility in alcohol,[2]; alcohol,slightly soluble
same,solubility in water,[2]; water,practically insoluble
"Cc1cccc(CN2CCN(C(c3ccccc3)c3ccc(Cl)cc3)CC2)c1 (stereo not shown) [meclizine, 1-[(4-chlorophenyl)-phenyl-methyl]-4-[(3-methylphenyl)methyl]piperazine]",protective activity against nebulized histamine and lethal doses of intravenously injected histamine,histamine [3],marked protective activity
same,blocking action against acetylcholine,acetylcholine,slight blocking action
same,inhibiting the spasmogenic action of histamine,[4],relatively weak
same,blocking the vasodepressor response to histamine,histamine [5],marked effect
same,tolerability (adverse effects),[6],no adverse effect reported

# Reference: patent publication US20130065910A1, “ORAL MECLIZINE AQUEOUS FORMULATIONS WITH TASTE FLAVORING AGENT” (COMPREHENSIVE DRUG ENTERPRISES LTD., priority 2010, published 2013)
